Data on nine compounds can be found in paper PMC8877291, “Design and Synthesis of Arylpiperazine Serotonergic/Dopaminergic Ligands with Neuroprotective Properties” (Molecules, 2022).

Assay [1] deals with T1, serotonin 5-HT1A receptor (Homo sapiens, UniProt P08908).
T1 construct: expressed in transfected cells
T1 sequence (P08908 1-422): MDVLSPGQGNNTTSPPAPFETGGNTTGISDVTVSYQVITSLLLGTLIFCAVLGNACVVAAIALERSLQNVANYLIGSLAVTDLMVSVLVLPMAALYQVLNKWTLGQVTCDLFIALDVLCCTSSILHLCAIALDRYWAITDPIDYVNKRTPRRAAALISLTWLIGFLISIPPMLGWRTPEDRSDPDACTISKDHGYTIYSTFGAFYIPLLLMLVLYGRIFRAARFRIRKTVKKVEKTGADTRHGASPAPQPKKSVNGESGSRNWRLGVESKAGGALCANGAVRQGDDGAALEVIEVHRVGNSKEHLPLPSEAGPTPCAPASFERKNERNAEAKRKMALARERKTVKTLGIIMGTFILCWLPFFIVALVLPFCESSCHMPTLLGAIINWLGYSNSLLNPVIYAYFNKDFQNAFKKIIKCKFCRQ
The assay can be described thus: 5-HT1A receptor radioligand competition binding ([3H]-8-Hydroxy-DPAT). The settings on record: for Ki: human cloned receptor, HEK293 membranes, 1 nM [3H]-8-Hydroxy-DPAT, ± S.E.M., n = 3 in duplicate, read-out: Affinity Ki 5-HT1A; for Ki ratio of the trimethylene and tetramethylene homologs at 5-HT1A: Ki of a (trimethylene) / Ki of b (tetramethylene) homolog, given as a/b. As for the experimental part: (§1) As a first step, competition radioligand binding assays were carried out for all the compounds at the single concentration of 10 µM, on membrane preparations from stable cell lines heterologously expressing the human cloned 5-HT1A, 5-HT2A, or 5-HT7 receptors. […] For the affinity determination at dopamine receptor subtypes, membrane fractions of human dopamine D2s, D3, D1, and D5 receptor-expressing cells were used. They were co-incubated with [^3H]spiperone (for D2s and D3 receptor) or [^3H]SCH23390 (for D1 and D5 receptor) and appropriate concentrations of test compound for 120 min. Bound radioligand was separated from the free ligand using filtration. Radioactivity was measured by liquid scintillation counting.
The affinity of the compounds for serotonin 5-HT1A receptor was evaluated in membrane preparations from HEK293 cells stably expressing the human cloned receptor, following previously described procedures with minor modifications. Competition binding experiments were performed using 1 nM [^3H]-8-Hydroxy-DPAT (1 mCi/mL, PerkinElmer NET929250UC) as radioligand. Nonspecific binding was assessed in the presence of 10 µM serotonin. […] Assays were carried out in duplicate in 96-well assay plates, in assay buffer (50 mM Tris-HCl, 5 mM MgSO4, pH = 7.4). Assay mixtures were incubated at 37 °C for 120 min, followed by filtration through GF/C glass filter plates, and washed with ice-cold wash buffer (50 mM Tris-HCl, pH = 7.4).
(Displacement assays read how much labelled ligand stays bound in the presence of the test substance.)

Assay [2] addresses T2, serotonin 5-HT7 receptor (5-HT7A) (Homo sapiens, UniProt P34969).
T2 construct: expressed in transfected cells
Nature of the assay: 5-HT7 receptor radioligand competition binding ([3H]-SB269970). Conditions: human cloned 5-HT7A receptor, HEK293 membranes, 2 nM [3H]-SB269970; ± S.E.M., n = 3 in duplicate; read-out: Affinity Ki 5-HT7. The protocol: as §1
The affinity of the compounds for serotonin 5-HT7 receptor was evaluated in membrane preparations from HEK293 cells stably expressing the human cloned 5-HT7A receptor, following previously described procedures with minor modifications. Competition binding experiments were performed using 2 nM [^3H]-SB269970 (34.5 Ci/mmol, 0.25 mCi/mL, Perkin Elmer NET1198U250UC) as radioligand. […] Methiothepine was included in the assays as reference compound. Assays were carried out in duplicate in 96-well assay plates, in assay buffer (50 mM Tris-HCl, 4 mM MgCl2, 1 mM ascorbic acid, 0.1 mM pargyline, pH = 7.4). Assay mixtures were incubated at 37 °C for 60 min, followed by filtration through GF/C glass filter plates, and washing with ice-cold assay buffer. Affinity (equilibrium dissociation constant, Ki) of the compounds was calculated from competition binding curves as indicated above.

The next assay deals with T3, dopamine D1 receptor (Homo sapiens, UniProt P21728).
T3 construct: expressed in transfected cells
The assay can be described thus: Dopamine D1 receptor competition binding ([3H]-SCH23390). The settings on record: HEK-293 membranes, [3H]-SCH23390 0.3 nM, mean (CI 95%), read-out: Affinity Ki D1. The protocol: as §1, with “The final compounds were tested for their affinity at serotonin 5-HT1A, 5-HT2A, and 5-HT7 receptors and at dopamine D1, D2, D3, and D5 receptors. As” for “As”
(§2) The affinity for dopamine D1 and D5 receptors was evaluated in membrane fractions of HEK-293 cells stably expressing the human dopamine D1 or D5 receptor. HEK-293-D1 cells were cultured in DMEM/F12 (15 mM HEPES, 1.2 g/L NaHCO3) with 10% (v/v) FBS and 1% (v/v) L-glutamine. HEK-293-D5 cells were cultured in DMEM/F12 (with L-glutamine, 1.2 g/L NaHCO3) with 20% (v/v) FBS. Preparation of membrane fractions and radioligand competition assays were performed as previously described. Briefly, membrane fractions were co-incubated with [^3H]-SCH23390 (0.3 nM) and different concentrations of test compound for 120 min at room temperature. Fluphenazine (100 µM) was used to determine non-specific binding and as reference compound.
(§3) Data of at least three independent experiments in triplicate were analyzed using GraphPad Prism 8.1 (San Diego, CA, USA). Binding curves were fitted to a non-linear regression model (one-site competition). Ki values were calculated from IC50 values using the Cheng–Prusoff equation. The statistical calculations were performed on –log(Ki).

The target of a further assay is T4, dopamine D5 receptor (Homo sapiens, UniProt P21918).
T4 construct: expressed in transfected cells
The assay can be described thus: Dopamine D5 receptor competition binding ([3H]-SCH23390). The settings on record: HEK-293 membranes, [3H]-SCH23390 0.3 nM, mean (CI 95%), read-out: Affinity Ki D5. The protocol:
as §1, with “The final compounds were tested for their affinity at serotonin 5-HT1A, 5-HT2A, and 5-HT7 receptors and at dopamine D1, D2, D3, and D5 receptors. As” for “As”
as §2, §3

A further assay deals with dopamine D3 receptor (Homo sapiens, UniProt P35462). The assay can be described thus: Dopamine D3 receptor competition binding ([3H]spiperone).

Values joined by “and” are separate entries in the source; they are usually repeats but may differ in a detail not shown here. Identical values can stand only once.

The Ki is a dissociation constant, usually derived from enzyme kinetics or from competition with a known ligand.

T3 sequence (P21728 whole entry): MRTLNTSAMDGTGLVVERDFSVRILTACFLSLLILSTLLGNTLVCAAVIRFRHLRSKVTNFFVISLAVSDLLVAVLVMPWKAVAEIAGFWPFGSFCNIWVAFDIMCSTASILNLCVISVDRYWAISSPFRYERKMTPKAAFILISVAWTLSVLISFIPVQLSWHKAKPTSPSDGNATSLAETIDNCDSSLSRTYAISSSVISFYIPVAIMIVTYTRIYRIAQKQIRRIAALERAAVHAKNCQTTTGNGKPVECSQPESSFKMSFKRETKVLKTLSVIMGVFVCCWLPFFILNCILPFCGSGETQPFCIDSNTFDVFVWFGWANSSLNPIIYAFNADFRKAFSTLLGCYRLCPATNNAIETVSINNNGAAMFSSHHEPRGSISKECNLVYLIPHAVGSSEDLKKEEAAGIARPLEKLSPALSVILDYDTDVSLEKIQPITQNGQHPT
T2 sequence (P34969 1-445 isoform P34969-2): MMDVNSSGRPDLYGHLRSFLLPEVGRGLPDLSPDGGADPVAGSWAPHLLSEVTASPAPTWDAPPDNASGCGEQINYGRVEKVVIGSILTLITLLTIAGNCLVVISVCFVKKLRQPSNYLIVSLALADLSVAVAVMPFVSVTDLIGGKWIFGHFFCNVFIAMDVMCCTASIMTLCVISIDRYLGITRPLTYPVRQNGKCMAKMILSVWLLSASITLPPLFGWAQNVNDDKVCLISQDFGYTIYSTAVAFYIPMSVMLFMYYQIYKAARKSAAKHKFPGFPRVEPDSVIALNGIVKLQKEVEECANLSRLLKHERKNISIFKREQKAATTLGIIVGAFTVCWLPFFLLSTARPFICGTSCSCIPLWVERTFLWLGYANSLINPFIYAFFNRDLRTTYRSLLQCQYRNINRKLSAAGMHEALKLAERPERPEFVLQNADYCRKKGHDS
dopamine D3 receptor, sequence (P35462 whole entry): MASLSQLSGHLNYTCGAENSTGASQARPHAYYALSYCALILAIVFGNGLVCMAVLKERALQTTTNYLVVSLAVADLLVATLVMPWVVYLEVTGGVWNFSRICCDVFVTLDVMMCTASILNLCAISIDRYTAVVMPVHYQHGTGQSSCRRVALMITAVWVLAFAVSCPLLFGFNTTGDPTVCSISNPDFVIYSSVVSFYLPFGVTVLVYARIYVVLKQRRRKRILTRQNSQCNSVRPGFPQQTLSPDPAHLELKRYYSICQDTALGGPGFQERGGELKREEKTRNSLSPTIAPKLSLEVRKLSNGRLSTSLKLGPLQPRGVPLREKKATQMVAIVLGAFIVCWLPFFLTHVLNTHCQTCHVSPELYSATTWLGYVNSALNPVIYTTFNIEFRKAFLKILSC
T4 sequence (P21918 whole entry): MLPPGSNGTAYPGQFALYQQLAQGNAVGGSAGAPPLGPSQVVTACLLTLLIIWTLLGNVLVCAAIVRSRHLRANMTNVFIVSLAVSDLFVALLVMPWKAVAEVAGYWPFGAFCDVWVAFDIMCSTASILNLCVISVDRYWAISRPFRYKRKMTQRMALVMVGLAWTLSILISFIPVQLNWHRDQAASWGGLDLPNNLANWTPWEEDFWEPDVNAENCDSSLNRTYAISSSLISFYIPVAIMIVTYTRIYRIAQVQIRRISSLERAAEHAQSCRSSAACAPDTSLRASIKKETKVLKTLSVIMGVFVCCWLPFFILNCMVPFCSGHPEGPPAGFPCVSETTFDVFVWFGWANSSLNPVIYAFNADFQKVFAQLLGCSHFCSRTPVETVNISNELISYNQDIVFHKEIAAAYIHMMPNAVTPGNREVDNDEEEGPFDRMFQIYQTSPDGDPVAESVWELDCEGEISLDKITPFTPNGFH
Procedure for dopamine D3 receptor: Competition binding experiments at dopamine D2s and D3 receptor were performed to determine the affinity of the compounds. […] Membrane preparations of transfected CHO-K1 cells stably expressing the human D2s or D3 receptor were performed according to Bautista-Aguilera et al. [26]. The competition binding experiments were conducted as previously reported [26, 27]. Briefly, membrane fractions (D2sR: 25 µg/200 µL; D3R: 20 µg/200 µL) were incubated with [^3H]spiperone (0.2 nM) and test compound for 120 min at room temperature. […] Non-specific binding was determined in the presence of 10 µM haloperidol. Haloperidol was also used as reference compound. Separation of the bound ligand from the free ligand was conducted by filtration through GF/B filters using deionized water.

As for `Cc1cc(=O)oc2cc(OCCCCN3CCN(c4ncccc4-c4ccncc4)CC3)ccc12` [Compound 12b, 7-(4-(4-([3,4’-Bipyridin]-2-yl)piperazin-1-yl)butoxy)-4-methyl-2H-chromen-2-one], the Ki in assay [1] is < 17.6 nM and 11.3 nM; in assay [2] it was 52.2 ± 10.6 nM; at dopamine D1 receptor it was 1530 nM; on dopamine D5 receptor, 2730 nM; on dopamine D3 receptor, 424 nM.
Turning to `Cn1c(=O)cnn(CCCN2CCN(c3ccc(F)cc3-c3ccc(C#N)cc3)CC2)c1=O` [Compound 10a, 5’-Fluoro-2’-(4-(3-(4-methyl-3,5-dioxo-4,5-dihydro-1,2,4-triazin-2(3H)-yl)propyl)piperazin-1-yl)-[1,1’-biphenyl]-4-carbonitrile], the Ki was 1090 ± 154 nM in assay [1]; 45.7 ± 1.3 nM in assay [2]; 104 nM on dopamine D1 receptor; 180 nM at dopamine D5 receptor; > 10000 nM on dopamine D3 receptor.
For `COc1ccc(-c2cc(F)ccc2N2CCN(CCCCn3ncc(=O)n(C)c3=O)CC2)cc1` [Compound 9b, 2-(4-(4-(5-Fluoro-4’-methoxy-[1,1’-biphenyl]-2-yl)piperazin-1-yl)butyl)-4-methyl-1,2,4-triazine-3,5(2H,4H)-dione] the same measures were 23.9 ± 4.9 nM, 45 ± 3.4 nM, 88.3 nM, 222 nM and > 10000 nM.
As for `CC1Oc2ccc(OCCCN3CCN(c4ncccc4-c4ccncc4)CC3)cc2NC1=O` (stereo not drawn) [Compound 8a, 6-(3-(4-([3,4’-Bipyridin]-2-yl)piperazin-1-yl)propoxy)-2-methyl-2H-benzo[b][1,4]oxazin-3(4H)-one], the “Ki ratio of the trimethylene and tetramethylene homologs at 5-HT1A” value in assay [1] is reported as 0.7. Moreover, the Ki in assay [1] was < 17.6 nM and 13.1 nM; in assay [2], 10.7 ± 0.7 nM; at dopamine D1 receptor it was 6290 nM; on dopamine D5 receptor it was 7410 nM; at dopamine D3 receptor it was 1220 nM.
As for `Cn1c(=O)cnn(CCCCN2CCN(c3ncccc3-c3ccncc3)CC2)c1=O` [Compound 11b, 2-(4-(4-([3,4’-Bipyridin]-2-yl)piperazin-1-yl)butyl)-4-methyl-1,2,4-triazine-3,5(2H,4H)-dione], the Ki in assay [1] is < 17.6 nM and 5.19 nM; in assay [2], 79.4 ± 9 nM; on dopamine D1 receptor, > 10000 nM; at dopamine D5 receptor it was > 10000 nM; at dopamine D3 receptor, > 10000 nM.
For the compound `Cc1cc(=O)oc2cc(OCCCN3CCN(c4ncccc4-c4ccncc4)CC3)ccc12` [Compound 12a, 7-(3-(4-([3,4’-Bipyridin]-2-yl)piperazin-1-yl)propoxy)-4-methyl-2H-chromen-2-one], the “Ki ratio of the trimethylene and tetramethylene homologs at 5-HT1A” value in assay [1] was 3.7. The Ki is 41.5 ± 3 nM in assay [1]; 42.5 ± 6.2 nM in assay [2]; 2200 nM at dopamine D1 receptor; > 10000 nM at dopamine D5 receptor; 1080 nM on dopamine D3 receptor.
For `Cn1c(=O)cnn(CCCN2CCN(c3ncccc3-c3ccncc3)CC2)c1=O` [Compound 11a, 2-(3-(4-([3,4’-Bipyridin]-2-yl)piperazin-1-yl)propyl)-4-methyl-1,2,4-triazine-3,5(2H,4H)-dione], the “Ki ratio of the trimethylene and tetramethylene homologs at 5-HT1A” value in assay [1] stood at 52. Besides, the Ki in assay [1] is 269 ± 18 nM; in assay [2] it was 44.5 ± 2.2 nM; on dopamine D1 receptor it was > 10000 nM; at dopamine D5 receptor it was > 10000 nM; on dopamine D3 receptor, > 10000 nM.
Consider `CC1Oc2ccc(OCCCCN3CCN(c4ncccc4-c4ccncc4)CC3)cc2NC1=O` (stereo not drawn) [Compound 8b, 6-(4-(4-([3,4’-Bipyridin]-2-yl)piperazin-1-yl)butoxy)-2-methyl-2H-benzo[b][1,4]oxazin-3(4H)-one], for which the Ki in assay [1] was < 17.6 nM and 17.6 nM; in assay [2], 9.38 ± 0.42 nM; on dopamine D1 receptor, 1710 nM; on dopamine D5 receptor, 8200 nM; at dopamine D3 receptor, 691 nM.
Take `Cn1c(=O)cnn(CCCCN2CCN(c3ccc(F)cc3-c3ccc(C#N)cc3)CC2)c1=O` [Compound 10b, 5’-Fluoro-2’-(4-(4-(4-methyl-3,5-dioxo-4,5-dihydro-1,2,4-triazin-2(3H)-yl)butyl)piperazin-1-yl)-[1,1’-biphenyl]-4-carbonitrile]: the Ki in assay [1] is 43.4 ± 6.2 nM; in assay [2], 36.5 ± 5.2 nM; on dopamine D1 receptor it was 140 nM; on dopamine D5 receptor, 101 nM; at dopamine D3 receptor it was > 10000 nM.
